In patent US12516049B2, “Sulfonylurea ring substituted monocyclic β-lactam antibiotics” (priority 2019, dated 2026):
≈ marks a conversion by molar mass, not a printed value.

Experiments:
Type in all cases: cell-based
E.coli 115105 = experiment: MIC, two-fold agar dilution, clinical isolate; settings: Escherichia coli, single drug, average of three tests
Description: (§1) The minimum inhibitory concentration (MIC) of the compound and combination with β-lactamase (MBLs) inhibitors against clinically isolated carbapenem-resistant enterobacteriaceae was determined by the two-fold agar dilution method to determine the activity of the compound to be tested against strains producing MBLs. […] The mother liquor was diluted to the concentration to be tested by double dilution method, an inoculum liquid was prepared by direct bacterial suspension method, 1 mL of the prepared bacteria solution was withdrawn and putted into the inoculation tube, and a positioning needle and an inoculation needle were installed. A bacterial multi-point inoculator was started for inoculation. After the bacterial solution was absorbed by the agar, the plate was placed upside down in an incubator at 37° C. for 16-20 hours, and the results were observed. The average of three tests was taken.

K.p HX30 = experiment: MIC, two-fold agar dilution, clinical isolate
Description: as §1

E.coli 115101 = experiment: MIC, two-fold agar dilution, clinical isolate; settings: Escherichia coli, 115101
Description: as §1

E.coli C1569 = experiment: MIC, two-fold agar dilution, clinical isolate; settings: Escherichia coli, single drug, average of three tests
Description: (§2) The minimum inhibitory concentration (MIC) of the compound and combination with β-lactamase (MBLs) inhibitors against clinically isolated carbapenem-resistant enterobacteriaceae was determined by the two-fold agar dilution method to determine the activity of the compound to be tested against strains producing MBLs. Antibiotics and enzyme inhibitors were weighed separately and dissolved in sterile ultrapure water or dimethyl sulfoxide to prepare mother liquor, MHA medium was prepared, pH was adjusted to 7.2-7.4, and it was sterilized at 121° C. for 15 minutes and placed in a 55° C. water bath for heat preservation. The mother liquor was diluted to the concentration to be tested by double dilution method, an inoculum liquid was prepared by direct bacterial suspension method, 1 mL of the prepared bacteria solution was withdrawn and putted into the inoculation tube, and a positioning needle and an inoculation needle were installed. A bacterial multi-point inoculator was started for inoculation. After the bacterial solution was absorbed by the agar, the plate was placed upside down in an incubator at 37° C. for 16-20 hours, and the results were observed. The average of three tests was taken.

K.p BAA-2470 = experiment: MIC, two-fold agar dilution, clinical isolate
Description: as §2

K.p CRE16 = experiment: MIC, two-fold agar dilution, clinical isolate; settings: single drug, average of three tests
Description: as §2

E.coli CRE18 = experiment: MIC, two-fold agar dilution, clinical isolate; settings: Escherichia coli, CRE18
Description: as §2

K.p HX77 = experiment: MIC, two-fold agar dilution, clinical isolate; settings: single drug, average of three tests
Description: as §2

K.p CRE11 = experiment: MIC, two-fold agar dilution, clinical isolate
Description: as §2

[1] = system: Morganella morganii C1274; experiment: MIC, two-fold agar dilution, clinical isolate; settings: Morganella morganii C1274; single drug; average of three tests; read-out: MIC
Description: as §2

E.coli CRE28 = experiment: MIC, two-fold agar dilution, clinical isolate; settings: Escherichia coli, CRE28
Description: as §2

E.coli BAA-2452 = experiment: MIC, two-fold agar dilution, clinical isolate; settings: Escherichia coli, BAA2452; E.coli BAA-2452; single drug; average of three tests; read-out: MIC
Description: as §2

K.p 090339 = experiment: MIC, two-fold agar dilution, clinical isolate; settings: K.p 090339; single drug; average of three tests; read-out: MIC
Description: as §2

E.coli 020031 = experiment: MIC, two-fold agar dilution, clinical isolate; settings: Escherichia coli, single drug, average of three tests
Description: as §2

K.p C904 = experiment: MIC, two-fold agar dilution, clinical isolate
Description: as §2

K.p 13249 = experiment: MIC, two-fold agar dilution, clinical isolate
Description: as §2

K.p 115004 = experiment: MIC, two-fold agar dilution, clinical isolate; settings: K.p 115004; single drug; average of three tests; read-out: MIC
Description: as §2

E.coli 020033 = experiment: MIC, two-fold agar dilution, clinical isolate; settings: Escherichia coli, single drug, average of three tests
Description: as §2

E.coli 020028 = experiment: MIC, two-fold agar dilution, clinical isolate; settings: Escherichia coli, single drug, average of three tests
Description: as §2

K.p 6777 = experiment: MIC, two-fold agar dilution, clinical isolate
Description: as §2

E.coli 115103 = experiment: MIC, two-fold agar dilution, clinical isolate; settings: Escherichia coli, 115103
Description: as §2

E.coli CRE21 = experiment: MIC, two-fold agar dilution, clinical isolate; settings: Escherichia coli, CRE21
Description: as §2

K.p 11544 = experiment: MIC, two-fold agar dilution, clinical isolate
Description: as §2

K.p CRE12 = experiment: MIC, two-fold agar dilution, clinical isolate; settings: single drug, average of three tests
Description: as §2

E.coli CRE23 = experiment: MIC, two-fold agar dilution, clinical isolate; settings: Escherichia coli, CRE23
Description: as §2

K.p HX37 = experiment: MIC, two-fold agar dilution, clinical isolate
Description: as §2

[2] = system: Enterobacter cloacae ATCC BAA-1143 (AmpC); experiment: MIC, micro-liquid dilution (CLSI); settings: ATCCBAA1143, E. cloacae ATCC BAA-1143, Class C (AmpC), 20-24 h, 37° C.
Description: (§3) Three strains of Klebsiella pneumonia, ATCC BAA-205 (TEM-1/SHV-1/SHV-12), ATCC BAA-1705 (KPC-2), ATCC BAA-2470 (NDM-1), Enterobacter cloacae ATCC BAA-1143 (AmpC), two strains of Escherichia coli ATCC BAA-2523 (OXA-48), ATCC 25922 were used to determine the minimum inhibitory concentration (MIC) of each of the compounds by micro-liquid dilution method according to the Institute of Clinical and Laboratory Standard (CLSI) requirements. […]. The plate was placed upside down at 37° C. and the MIC value was read after 20-24 h of incubation, and the lowest drug concentration that inhibited the growth of bacteria was set as MIC. Colony-Forming Units (CFU) refer to the total number of bacterial colonies per unit volume.

[3] = system: Klebsiella pneumonia ATCC BAA-205 (TEM-1/SHV-1/SHV-12); experiment: MIC, micro-liquid dilution (CLSI); settings: Klebsiella pneumoniae, ATCCBAA205; K. pneumonia ATCC BAA-205, Class A (TEM-1/SHV-1/SHV-12); 20-24 h, 37° C.
Description: as §3

[4] = system: Escherichia coli ATCC 25922; experiment: MIC, micro-liquid dilution (CLSI); settings: ATCC25922, E. coli ATCC 25922, 20-24 h, 37° C.
Description: as §3

[5] = system: Escherichia coli ATCC BAA-2523 (OXA-48); experiment: MIC, micro-liquid dilution (CLSI); settings: ATCCBAA2523, E. coli ATCC BAA-2523, Class D (OXA-48), 20-24 h, 37° C., read-out: MIC
Description: as §3

[6] = system: Klebsiella pneumonia ATCC BAA-1705 (KPC-2); experiment: MIC, micro-liquid dilution (CLSI); settings: Klebsiella pneumoniae, ATCCBAA1705; K. pneumonia ATCC BAA-1705, Class A (KPC-2); 20-24 h, 37° C.
Description: as §3

[7] = system: Klebsiella pneumonia ATCC BAA-2470 (NDM-1); experiment: MIC, micro-liquid dilution (CLSI); settings: Klebsiella pneumoniae, ATCCBAA2470; K. pneumonia ATCC BAA-2470, Class B (NDM-1); 20-24 h, 37° C.
Description: as §3

`C[C@H]1[C@H](NC(=O)/C(=N\OC(C)(C)C(=O)O)c2csc(N)n2)C(=O)N1S(=O)(=O)O` [Aztreonam] gave an MIC (E.coli 115105) of 16 µg/mL, an MIC (K.p HX30) greater than 128 µg/mL and an MIC (E.coli 115101) greater than 128 µg/mL. It also gave an MIC (E.coli C1569) of 1 µg/mL, an MIC (K.p BAA-2470) greater than 128 µg/mL and an MIC (K.p CRE16) of 64 µg/mL. It also gave an MIC (E.coli CRE18) greater than 128 µg/mL, an MIC (K.p HX77) of 16 µg/mL and an MIC (K.p CRE11) of 128 µg/mL. The MIC [1] was 4 µg/mL, the MIC (E.coli CRE28) was greater than 128 µg/mL and the MIC (E.coli BAA-2452) was 16 µg/mL. It also gave an MIC (K.p 090339) of 64 µg/mL, an MIC (E.coli 020031) of 4 µg/mL and an MIC (K.p C904) greater than 128 µg/mL. It also gave an MIC (K.p 13249) greater than 128 µg/mL, an MIC (K.p 115004) of 64 µg/mL and an MIC (E.coli 020033) of 32 µg/mL. For the same compound, the MIC (E.coli 020028) was 16 µg/mL, the MIC (K.p 6777) was 128 µg/mL and the MIC (E.coli 115103) was 128 µg/mL. The MIC (E.coli CRE21) was greater than 128 µg/mL, the MIC (K.p 11544) was greater than 128 µg/mL and the MIC (K.p CRE12) was 4 µg/mL. The MIC (E.coli CRE23) was greater than 128 µg/mL and the MIC (K.p HX37) was greater than 128 µg/mL.

`Nc1nc(/C(=N/OC2(C(=O)O)CC2)C(=O)N[C@@H]2C(=O)N(S(=O)(=O)O)[C@@H]2CN2CCCNS2(=O)=O)cs1` [Compound 2] gave an MIC [2] of 2 µg/mL (≈ 3.52 µM), an MIC [3] of 1 µg/mL (≈ 1.76 µM) and an MIC [4] of 4 µg/mL (≈ 7.05 µM). It also gave an MIC [5] of 1 µg/mL (≈ 1.76 µM), an MIC [6] of 2 µg/mL (≈ 3.52 µM) and an MIC [7] of 1 µg/mL (≈ 1.76 µM).

Compound `CC(=O)OC[C@@H]1CN(C[C@@H]2[C@H](NC(=O)/C(=N\OC3(C(=O)O)CC3)c3csc(N)n3)C(=O)N2S(=O)(=O)O)S(=O)(=O)N1` [Compound 3] has an MIC [2] of 2 µg/mL (≈ 3.2 µM), an MIC [3] of 2 µg/mL (≈ 3.2 µM) and an MIC [4] of 4 µg/mL (≈ 6.39 µM). The MIC [5] was 0.25 µg/mL (≈ 0.4 µM), the MIC [6] was 2 µg/mL (≈ 3.2 µM) and the MIC [7] was 1 µg/mL (≈ 1.6 µM).
